Experimental data from patent US6596700B2, “Methods of treating hepatitis delta virus infection with β-L-2'-deoxy-nucleosides” (priority 2000, dated 2003).
pEC50, pIC50: −log10 of the molar value. Like-named read-outs stand apart in the source and are kept apart here.

Experiments:
[1] = test system: HDV; conditions: in vivo, cited from earlier work
[2] = test system: hepatitis B virus; experiment: anti-hepatitis B virus activity in transfected Hep G-2 (2.2.15) cells; assay type: cell-based
[3] = test system: CFU-GM
[4] = test system: Hep G-2 (2.2.15) cells; experiment: cytotoxicity in Hep G-2 (2.2.15) cells; conditions: read-out: Cytotoxicity IC50
[5] = test system: BFU-E; experiment: human bone marrow clonogenic assay, BFU-E; assay type: cell-based
[6] = test system: woodchuck hepatitis virus (WHV); experiment: woodchuck chronic hepatitis model, WHV DNA in serum; assay type: in vivo, woodchucks (Marmota monax); conditions: for activity compared with 3TC (lamivudine): 3TC 10 mg/kg/day; for ng WHV-DNA per ml serum: orally once a day at 10 mg/kg; for activity in the in vivo model / level to which viral load is reduced: woodchucks chronically infected with WHV
Protocol: The efficacy of L-dA, L-dT and L-dC against hepadnavirus infection in woodchucks (Marmota monax) chronically infected with woodchuck hepatitis virus (WHV) was determined. This animal model of HBV infection is widely accepted and has proven to be useful for the evaluation of antiviral agents directed against HBV. There were 3 animals per drug group, and 4 animals per control. In group 1, the animals received a vehicle control; group 2 received lamivudine (3TC) (10 mg/kg/day); groups 3-6 received L-dA (0.01, 0.1, 1.0, 10 mg/kg/day, respectively); groups 7-10 received L-dT (0.01, 0.1, 1.0, 10 mg/kg/day, respectively); and groups 11-14 received L-dC (0.01, 0.1, 1.0, 10 mg/kg/day). […] Assessment of the activity and toxicity was based on the reduction of WHV DNA in serum: dot-blot, quantative PCR.

[7] = test system: HDV; conditions: patients with chronic delta hepatitis; cited from earlier work
[8] = test system: hepatitis B surface antigen; conditions: in vivo; cited from earlier work
[9] = test system: HDV; conditions: chronically infected animals; cited from earlier work
[10] = test system: HDV; conditions: cited from earlier work
[11] = test system: CFU-GM; experiment: human bone marrow clonogenic assay, CFU-GM; conditions: effect on cell growth
[12] = test system: hepatitis B; conditions: for pIC50: single agent, hepatitis B replication in 2.2.15 cells
[13] = extracellular DNA, read-out: HBV virions EC50
[14] = replicative intermediates (intracellular DNA), read-out: HBV Ri EC50
[15] = day 0, limit of detection 1 ng/ml

Structure (SMILES) | pEC50 [2, 13] | pEC50 [2, 14] | pIC50 [4] | BFU-E [5] [µM] | activity compared with 3TC (lamivudine) [6] | ng WHV-DNA per ml serum [6, 15] [ng/mL] | ng WHV-DNA per ml serum ([6]; day 1) [ng/mL] | ng WHV-DNA per ml serum ([6]; day 3) [ng/mL] | ng WHV-DNA per ml serum ([6]; day 7) [ng/mL] | ng WHV-DNA per ml serum ([6]; day 14) [ng/mL] | activity in the in vivo model [6] | level to which viral load is reduced [6] | other results
NC(=O)c1ncn([C@@H]2O[C@H](CO)[C@@H](O)[C@H]2O)n1 [Ribavirin] |  |  |  |  |  |  |  |  |  |  |  |  | side-effects [1]: severe side-effects; virological or biochemical parameters [1]: did not significantly affect virological or biochemical parameters
Cc1cn([C@@H]2C[C@@H](O)[C@H](CO)O2)c(=O)[nH]c1=O [β-L-dT, 2′-Deoxy-β-L-thymidine] | 7.30 | 7.30 | < 3.70 | >10 | more active than 3TC | 423 | 45 | 14 | 6 | 1 | highly active | undetectable | CFU-GM [3]: >10 µM; viral rebound after withdrawal ([6]; post-treatment): viral rebound is not detected for at least two weeks
O=c1ccn([C@@H]2C[C@@H](O)[C@H](CO)O2)c(=O)[nH]1 [β-L-dU, β-L-2′-deoxyuridine] | 5.30 | 5.30 | < 3.70 | >10 |  |  |  |  |  |  |  |  | CFU-GM [3]: >10 µM
Nc1ccn([C@@H]2CS[C@H](CO)O2)c(=O)n1 [Lamuvidine, β-L-2′,3′-dideoxy-3′-thiacytidine] |  |  |  |  |  |  |  |  |  |  |  |  | disease activity and HDV-RNA levels [7]: does not improve disease activity or lower HDV-RNA levels
Cc1cn([C@H]2O[C@@H](CO)[C@H](O)[C@H]2F)c(=O)[nH]c1=O [L-FMAU, 2′-fluoro-5-methyl-beta-L-arabinofuranosyluridine] |  |  |  |  |  |  |  |  |  |  |  |  | level of hepatitis B surface antigen [8]: significantly reduces the level of hepatitis B surface antigen; inhibition of HDV [9]: potent inhibitor of HDV
Cc1ccc(C(=O)Nc2ccc(S(=O)(=O)O)c3cc(S(=O)(=O)O)cc(S(=O)(=O)O)c23)cc1NC(=O)c1cccc(NC(=O)Nc2cccc(C(=O)Nc3cc(C(=O)Nc4ccc(S(=O)(=O)O)c5cc(S(=O)(=O)O)cc(S(=O)(=O)O)c45)ccc3C)c2)c1 [suramin] |  |  |  |  |  |  |  |  |  |  |  |  | toxicity ([1]; human): too toxic to be acceptable for long term use in humans; entry of the virion into hepatocytes [10]: blocks the entry of the virion into hepatocytes
Nc1nc2c(ncn2COCCO)c(=O)[nH]1 [Acyclovir] |  |  |  |  |  |  |  |  |  |  |  |  | HDV replication ([10]; in vitro): enhances HDV replication in vitro
Nc1ccn([C@@H]2C[C@@H](O)[C@H](CO)O2)c(=O)n1 [β-L-dC, 2′-Deoxy-β-L-cytidine] | 7.30 | 7.30 | < 3.70 | >10 | more active than 3TC | 426 | 123 | 62 | 46 | 20 | highly active | nearly undetectable | CFU-GM [11]: >10 µM; % Inhibition ([12]; single agent 0.005 μM): 10%; % Inhibition ([12]; single agent 0.05 μM): 40%; % Inhibition ([12]; single agent 0.5 μM): 95%; pIC50 [12]: 7.22
Nc1ncnc2c1ncn2[C@@H]1C[C@@H](O)[C@H](CO)O1 [β-L-dA, 2′-Deoxy-β-L-adenosine] | 7.00 | 7.00 | < 3.70 |  | more active than 3TC | 436 | 369 | 140 | 102 | 74 | highly active | nearly undetectable | CFU-GM [11]: >10 µM; BFU-E ([5]; effect on cell growth, human bone marrow clonogenic assay): >10 µM; % Inhibition ([12]; single agent 0.005 μM): 1%; % Inhibition ([12]; single agent 0.05 μM): 24%; % Inhibition ([12]; single agent 0.5 μM): 90%; pIC50 [12]: 7.05
O=c1[nH]cnc2c1ncn2[C@@H]1C[C@@H](O)[C@H](CO)O1 [β-L-dI, 2′-deoxy-β-L-inosine] | 6.00 | 6.00 | < 3.70 |  |  |  |  |  |  |  |  |  | 
